Data on 21 compounds can be found in patent US20140329797A1, “SUBSTITUTED OXADIAZOLYL PYRIDINONES AND OXADIAZOLYL PYRIDAZINONES AS HIF INHIBITORS” (Bayer Intellectual Property GmbH, priority 2011, published 2014).

The assay relates to HCT 116 cells transfected with a luciferase reporter under the control of an HIF-responsive sequence. As to the kind of experiment: HIF-luciferase assay. Particulars: Homo sapiens; HCT 116 HIF-luciferase reporter cells, hypoxia chamber (1% O2), 24 h; in some cases means of up to four individual determinations. Type of assay: cell-based. Here is the method:
B-1. HIF-Luciferase Assay
HCT 116 cells were transfected in a stable manner with a plasmid which contained a luciferase reporter under the control of an HIF-responsive sequence. These cells were sown in microtitre plates [20000 cells/cavity in RPMI 1640 medium with 10% foetal calf serum (FCS) and 100 μg/ml of hygromycin]. Incubation was carried out overnight under standard conditions (5% CO2, 21% O2, 37° C., moistened). The following morning the cells were incubated with various concentrations of the test substances (0-10 μmol/l) in a hypoxia chamber (1% O2). After 24 h, Bright Glo reagent (Promega, Wisconsin, USA) was added in accordance with the manufacturer's instructions, and after 5 min the luminescence was measured. Cells which were incubated under normoxia served as background controls.
For orientation: In a reporter assay the amount or activity of a reporter protein is the signal.

Molecules are shown by their SMILES.

In the case of `Cc1ccc(Cn2cc(-c3nc(-c4ccc(OC(F)(F)F)cc4)no3)ccc2=O)cc1` [Example 1, 1-(4-Methylbenzyl)-5-{3-[4-(trifluoromethoxy)phenyl]-1,2,4-oxadiazol-5-yl}pyridin-2(1H)-one], it took 45 nM to reach half-maximal inhibition (IC50).

With `Cc1ccc(Cn2cc(-c3nc(-c4ccc(C(C)(C)C(F)(F)F)cc4)no3)ccc2=O)cc1` [Example 2, 1-(4-Methylbenzyl)-5-{3-[4-(1,1,1-trifluoro-2-methylpropan-2-yl)phenyl]-1,2,4-oxadiazol-5-yl}pyridin-2(1H)-one], the IC50 turned out to be 40 nM.

As for `CC(C)(c1ccc(-c2noc(-c3ccc(=O)n(Cc4ccc(Cl)cc4)c3)n2)cc1)C(F)(F)F` [Example 4, 1-(4-Chlorobenzyl)-5-{3-[4-(1,1,1-trifluoro-2-methylpropan-2-yl)phenyl]-1,2,4-oxadiazol-5-yl}pyridin-2(1H)-one], inhibition was half-maximal at 50 nM (IC50). Next, `Nc1ccc(Cn2cc(-c3nc(-c4ccc(OC(F)(F)F)cc4)no3)ccc2=O)cc1` [Example 7, 1-(4-Aminobenzyl)-5-{3-[4-(trifluoromethoxy)phenyl]-1,2,4-oxadiazol-5-yl}pyridin-2(1H)-one]: 20 nM; `N#CC1CCN(c2cccc(Cn3cc(-c4nc(-c5ccc(OC(F)(F)F)cc5)no4)ccc3=O)c2)CC1` [Example 9, 1-(3-{[2-oxo-5-{3-[4-(trifluoromethoxy)phenyl]-1,2,4-oxadiazol-5-yl}pyridin-1(2H)-yl]methyl}phenyl)piperidine-4-carbonitrile]: 1.5 nM; `N#CC1CCN(c2cccc(Cn3cc(-c4nc(-c5ccc(SC(F)(F)F)cc5)no4)ccc3=O)c2)CC1` [Example 10, 1-(3-{[2-oxo-5-(3-{4-[(trifluoromethyl)sulphanyl]phenyl}-1,2,4-oxadiazol-5-yl)pyridin-1(2H)-yl]methyl}phenyl)piperidine-4-carbonitrile]: 1 nM. On to `CC(C)(c1ccc(-c2noc(-c3ccc(=O)n(Cc4cccc(N5CCC(C#N)CC5)c4)c3)n2)cc1)C(F)(F)F` [Example 11, 1-(3-{[2-oxo-5-{3-[4-(1,1,1-trifluoro-2-methylpropan-2-yl)phenyl]-1,2,4-oxadiazol-5-yl}pyridin-1(2H)-yl]methyl}phenyl)piperidine-4-carbonitrile], for which the IC50 turned out to be 2 nM. With `N#CC1CCN(c2cccc(Cn3cc(-c4nc(-c5ccc(C6(C(F)(F)F)CC6)cc5)no4)ccc3=O)c2)CC1` [Example 12, 1-(3-{[2-oxo-5-(3-{4-[1-(trifluoromethyl)cyclopropyl]phenyl}-1,2,4-oxadiazol-5-yl)pyridin-1(2H)-yl]methyl}phenyl)piperidine-4-carbonitrile], the IC50 came to 1.5 nM. Next, `O=c1ccc(-c2nc(-c3ccc(OC(F)(F)F)cc3)no2)cn1Cc1cccc(N2CC(O)C2)c1` [Example 13, 1-[3-(3-Hydroxyazetidin-1-yl)benzyl]-5-{3-[4-(trifluoromethoxy)phenyl]-1,2,4-oxadiazol-5-yl}pyridin-2(1H)-one]: 2 nM; `O=c1ccc(-c2nc(-c3ccc(SC(F)(F)F)cc3)no2)cn1Cc1cccc(N2CC(O)C2)c1` [Example 14, 1-[3-(3-Hydroxyazetidin-1-yl)benzyl]-5-(3-{4-[(trifluoromethyl)sulphanyl]phenyl}-1,2,4-oxadiazol-5-yl)pyridin-2(1H)-one]: 2 nM. Take `CC(C)(c1ccc(-c2noc(-c3ccc(=O)n(Cc4cccc(N5CC(O)C5)c4)c3)n2)cc1)C(F)(F)F` [Example 15, 1-[3-(3-Hydroxyazetidin-1-yl)benzyl]-5-{3-[4-(1,1,1-trifluoro-2-methylpropan-2-yl)phenyl]-1,2,4-oxadiazol-5-yl}pyridin-2(1H)-one]: the IC50 worked out at 2 nM. Next, `O=c1ccc(-c2nc(-c3ccc(C4(C(F)(F)F)CC4)cc3)no2)cn1Cc1cccc(N2CC(O)C2)c1` [Example 16, 1-[3-(3-Hydroxyazetidin-1-yl)benzyl]-5-(3-{4-[1-(trifluoromethyl)cyclopropyl]phenyl}-1,2,4-oxadiazol-5-yl)pyridin-2(1H)-one]: 5 nM; `COC(=O)c1cccc(Cn2cc(-c3nc(-c4ccc(C(C)(C)C(F)(F)F)cc4)no3)ccc2=O)c1` [Example 19, Methyl 3-{[2-oxo-5-{3-[4-(1,1,1-trifluoro-2-methylpropan-2-yl)phenyl]-1,2,4-oxadiazol-5-yl}pyridin-1(2H)-yl]methyl}benzoate]: 30 nM; `CNC(=O)c1cccc(Cn2cc(-c3nc(-c4ccc(C(C)(C)C(F)(F)F)cc4)no3)ccc2=O)c1` [Example 21, N-Methyl-3-{[2-oxo-5-{3-[4-(1,1,1-trifluoro-2-methylpropan-2-yl)phenyl]-1,2,4-oxadiazol-5-yl}pyridin-1(2H)-yl]methyl}benzamide]: 30 nM. Then `CN(C)C(=O)c1cccc(Cn2cc(-c3nc(-c4ccc(OC(F)(F)F)cc4)no3)ccc2=O)c1` [Example 22, N,N-Dimethyl-3-{[2-oxo-5-{3-[4-(trifluoromethoxy)phenyl]-1,2,4-oxadiazol-5-yl}pyridin-1(2H)-yl]methyl}benzamide], with 20 nM; and `CN(C)C(=O)c1cccc(Cn2cc(-c3nc(-c4ccc(C(C)(C)C(F)(F)F)cc4)no3)ccc2=O)c1` [Example 23, N,N-Dimethyl-3-{[2-oxo-5-{3-[4-(1,1,1-trifluoro-2-methylpropan-2-yl)phenyl]-1,2,4-oxadiazol-5-yl}pyridin-1(2H)-yl]methyl}benzamide], with 15 nM; and `CC(C)(c1ccc(-c2noc(-c3ccc(=O)n(Cc4cccc(C(=O)N5CCC5)c4)c3)n2)cc1)C(F)(F)F` [Example 25, 1-[3-(Azetidin-1-ylcarbonyl)benzyl]-5-{3-[4-(1,1,1-trifluoro-2-methylpropan-2-yl)phenyl]-1,2,4-oxadiazol-5-yl}pyridin-2(1H)-one], with 5 nM.

`CC(C)(c1ccc(-c2noc(-c3ccc(=O)n(Cc4cccc(C(=O)N5CC(O)C5)c4)c3)n2)cc1)C(F)(F)F` [Example 27, 1-{3-[(3-Hydroxyazetidin-1-yl)carbonyl]benzyl}-5-{3-[4-(1,1,1-trifluoro-2-methylpropan-2-yl)phenyl]-1,2,4-oxadiazol-5-yl}pyridin-2(1H)-one]: the IC50 came to 1 nM. `O=C(c1cccc(Cn2cc(-c3nc(-c4ccc(OC(F)(F)F)cc4)no3)ccc2=O)c1)N1CCCC1` [Example 28, 1-[3-(Pyrrolidin-1-ylcarbonyl)benzyl]-5-{3-[4-(trifluoromethoxy)phenyl]-1,2,4-oxadiazol-5-yl}pyridin-2(1H)-one] showed an IC50 of 2 nM.

With `O=C(c1cccc(Cn2cc(-c3nc(-c4ccc(OC(F)(F)F)cc4)no3)ccc2=O)c1)N1CCCO1` [Example 30, 1-[3-(1,2-Oxazolidin-2-ylcarbonyl)benzyl]-5-{3-[4-(trifluoromethoxy)phenyl]-1,2,4-oxadiazol-5-yl}pyridin-2(1H)-one], the IC50 worked out at 2 nM. Then `O=C(c1cccc(Cn2cc(-c3nc(-c4ccc(OC(F)(F)F)cc4)no3)ccc2=O)c1)N1CCC(O)CC1` [Example 32, 1-{3-[(4-Hydroxypiperidin-1-yl)carbonyl]benzyl}-5-{3-[4-(trifluoromethoxy)phenyl]-1,2,4-oxadiazol-5-yl}pyridin-2(1H)-one], with 2 nM.

For orientation: IC50 means the concentration that gives 50% inhibition.
